Earlier results, collected in US20150071857A1, “STEROID HORMONE AND CHOLESTEROL PATHWAYS AS ONE UNIFIED HOMEOSTATIC SYSTEM” (LIGAND PHARMACEUTICALS, INC., priority 2012, published 2015).
Where two headings read alike, the source gives them in different places.

Key:
[1] = high-dose, postmenopausal women
[2] = parenterally formulated progestin-only contraceptive, women
[3] = large WHI trials
[4] = high dose, on top of statin therapy

For `O=c1c(-c2ccccc2)coc2ccccc12` [isoflavone], the HDL-C change [1] is given as “significantly reduced” and the “total T change” value [1] is given as “significantly reduced”.

In the case of `CC(=O)O[C@]1(C(C)=O)CC[C@H]2[C@@H]3C[C@H](C)C4=CC(=O)CC[C@]4(C)[C@H]3CC[C@@]21C` [Medroxyprogesterone acetate], the HDL-C change [2] is listed as “significant reduction in HDL-C” and the thrombosis events [3] is listed as “doubled the thrombosis events”.

For `O=C(O)c1cccnc1` [niacin], the cardiovascular events [4] is listed as “no significant reduction in cardiovascular events”.
